Measured values: patent publication US10471030B2, “Immunomodulatory and differentiating function selective retinoid and rexinoid compounds in combination with immune modulators for cancer immunotherapy” (Io Therapeutics, Inc., priority 2017, dated 2019)

Legend:
[1] = tested on: H929 Luc+ cells; experiment: subcutaneous xenograft model of MM-niche interactions with WT or Smo-KO stroma, bioluminescence; assay type: in vivo, NSG mice; settings: IRX 10 mg/kg i.p. daily, BTZ 0.5 mg/kg i.p. twice weekly
Protocol: 1×10^6 H929 Luc+ cells and 1×10^6 mouse BM stromal cells were resuspended in 100 μl […]®, diluted with RPMI (1:1), and injected subcutaneously into 16-week-old male NSG mice. After 4 days, treatment with BTZ (0.5 mg/kg i.p. twice weekly) and IRX (10 mg/kg i.p. daily) was initiated. Tumor burden was assessed by bioluminescence using the In Vivo Imaging System (PerkinElmer). For imaging, mice were exposed to 120 mg/kg D-luciferin via intraperitoneal injection […] before imaging and were anesthetized using isoflurane. Images were analyzed with Living Image Software, version 2.5 (PerkinElmer), and data were quantified as photons/second.
To study to what extent an RA-low environment created by the BM stroma and enhanced by MM cells via paracrine Hedgehog signaling contributes to BTZ resistance, a xenograft model of MM-niche interactions was developed. Each mouse carried 2 subcutaneous tumors consisting of H929 Luc+ cells and either WT (anterior tumors) or Smo-KO stroma (posterior tumors). Mice were treated with IRX (10 mg/kg i.p. daily), BTZ (0.5 mg/kg i.p. twice weekly), or a combination of both. The growth of tumors bearing WT or Smo-KO stroma was not different in untreated or IRX-treated groups (FIGS. 9 and 10). […] While some tumors in the treatment group receiving combined IRX and BTZ appeared to have regressed completely, even after anatomical study, this was not the case for all the mice in this group.

[2] = tested on: RARα; experiment: transactivation assay, agonist activity; assay type: cell-based; settings: RARα versus RARβ, RARγ; FIG. 1
From the text: Transactivation assays employ expression plasmids encoding the full length receptors RARα, RARβ, and RAR ? . Reporter plasmids containing the herpes virus thymidine kinase promoter and the appropriate retinoic acid receptor response element (RAREs) are positioned upstream of an open coding region encoding firefly luciferase.

[3] = tested on: OCI-AML3 cells; experiment: CFU experiments off and on stroma, OCI-AML3 cells; assay type: cell-based; settings: 10^−6 M ATRA, IRX5183, or 10^−7 M AM80
From the text: Data across three independent experiments.

[4] = tested on: MM cells; experiment: surface CD138 expression of MM cells (flow cytometry); assay type: cell-based, human; settings: BM stromal cell co-cultures, 1 μM
Protocol: 24-well plates were coated with 0.1% gelatin in PBS for 30 min at 37° C. The gelatin solution was removed, and the stromal cells were cultured overnight at a density of 5×10^4 cells/well to obtain a confluent monolayer. At that time, MM cell lines or primary MM cells (1×10^5 in 2 ml) were added to the stroma cultures. The stroma cocultures were incubated at 37° C. in RPMI containing 10% FCS, L-glutamine, and P/S, with or without AGN194310 (1 μM for 5 days), R115866 (1 μM for 5 days), IRX5183 (1 μM for 5 days), or BTZ (2.5 nM for 48 hr).
Following treatment, MM cells were collected, washed with PBS, and stained for 15 min at room temperature with phycoerythrin-conjugated (PE-conjugated) anti-CD138. Cells were washed to remove unbound antibody and evaluated in a FACSCalibur system (BD Biosciences). Stromal cells were identified by GFP expression, and viable cells were identified using 7-aminoactinomycin D (7-AAD). To calculate cell numbers, live GFP-cells were normalized to calibration beads.
Expression of CD138 is a hallmark of normal PC differentiation as well MM PCs.

[5] = tested on: H929 luciferase+ (Luc+) cells; experiment: systemic MM xenograft, bioluminescence; assay type: in vivo, NSG mice; settings: 4 weeks
Protocol: For the systemic MM model, 2×10^6 Luc+/GFP+ H929 cells were injected via the tail vein into 16-week-old male NSG mice. After engraftment, as determined by an exponential increase in bioluminescence, mice were treated with BTZ (0.5 mg/kg i.p.) twice weekly and with IRX (10 mg/kg) once daily. Tumor burden was assessed by bioluminescence, as above.
To test whether retinoids can enhance BTZ activity in MM, a systemic MM xenograft was developed by injecting 2×10^6 H929 luciferase+ (Luc+) cells via the tail vein of non-obese, diabetic, severe combined immunodeficiency IL-2 receptor γ-KO (NSG) mice. The animals were randomized to receive IRX, BTZ, or a combination of both, and disease burden was followed weekly by bioluminescence imaging (FIG. 6).

CC1(C)CCC(C)(C)c2c1cc(C(=O)Nc1cc(F)c(C(=O)O)c(F)c1)c(O)c2Cl [IRX5183]
growth or response of tumors bearing WT versus Smo-KO stroma [1]: not different
agonist activity, activation of transcription [2]: specifically activates RARα
clonogenic growth (CFU) [3]: decrease in clonogenic growth compared to control
surface CD138 expression [4]: restored CD138 expression
disease burden (bioluminescence) ([5]; IRX in combination with BTZ): significant (P<0.01) decrease in disease burden
tumor burden (bioluminescence) ([5]; monotherapy, BTZ 0.5 mg/kg i.p. twice weekly, IRX 10 mg/kg once daily): decrease in tumor burden compared with untreated mice
